Legend:
[1] = mouse, in vivo
Procedure: The ability of the compounds of the invention to penetrate the brain was investigated by measuring their brain/plasma (B/P) concentration ratio in mice following intraperitoneal administration.
Female CD-1 mice were used (n=3 for each time period) and received the compounds of the invention by intraperitoneal administration, in 25 mg/kg doses in a 0.5% NaHCO3 buffer (pH 8.3). At predefined intervals following said administration, i.e. 5, 15, 30 and 60 minutes, the mice were killed and both plasma and total brain tissue were collected.
Specifically, after anaesthesia with ether, the animals were bled by blood withdrawal from the abdominal aorta then immediately decapitated. The blood samples were collected into plasma separator tubes containing Li-Heparin as anticoagulant and centrifuged. The resulting plasma was then stored at -20 °C. The brain was rapidly removed from the cranium and weighed, subsequently frozen and stored at -20 °C before treatment by homogenization and HPLC analysis.
The plasma was thawed and mixed with an equal volume of the extraction solution. This extraction solution was a mixture of aqueous and organic solvents whose composition had been previously determined by HPLC undertaken for each analyte.
1 ml of solution was then extracted by adding 20 µl of 70% HClO4 then centrifuged at 15,500g for 5 minutes and injected into the HPLC.
Each brain was thawed and homogenized with the extraction solution to provide a final composition of 4 ml/1g of tissue by means of an Ultra-Turrax blender and sonicated for 5 minutes. After centrifugation of the homogenate at 15,500g for 5 minutes, the resulting solution was treated with HClO4, as indicated for the plasma.
Specific chromatographic conditions had been developed for each analyte, the calibration curve being constructed for plasma and brain homogenate.

[2] = test system: cerebral oxidative stress induced in mice by doxorubicin; experiment: In vivo assay of cerebral oxidative stress induced in mice by doxorubicin; settings: for Brain/BWi its own / CAT/pr its own / GPX/pr its own / GSH/pr its own / GST/pr its own / Prot. Hmg its own / Prot. Ox/pr its own / SOD/pr its own / Brain/BWi vehicle / CAT/pr vehicle / GPX/pr vehicle / GSH/pr vehicle / GST/pr vehicle / Prot. Hmg vehicle / Prot. Ox/pr vehicle / SOD/pr vehicle: % inhibition relative to variation due to doxorubicin alone, oxidized animals; for Brain/BWi its own / CAT/pr its own / GPX/pr its own / GSH/pr its own / GST/pr its own / Prot. Hmg its own / Prot. Ox/pr its own / SOD/pr its own: as function of its own control; for Brain/BWi vehicle / CAT/pr vehicle / GPX/pr vehicle / GSH/pr vehicle / GST/pr vehicle / Prot. Hmg vehicle / Prot. Ox/pr vehicle / SOD/pr vehicle: as function of vehicle; for Brain/BWi / CAT/pr / GPX/pr / GSH/pr / GST/pr / Prot. Hmg / Prot. Ox/pr / SOD/pr: % variation relative to the vehicle, 50 mg/kg IP x3 days (D = doxorubicin alone); for Brain/BWi / CAT/pr / GPX/pr / GSH/pr / GST/pr / Prot. Hmg / Prot. Ox/pr / SOD/pr / Mean % variation relative to the vehicle: healthy animals; for Mean % variation relative to the vehicle: 50 mg/kg IP days 0, 1 and 2, mean over all parameters, approximate safety index (D = doxorubicin alone); for overall percentage inhibition: with respect to Its own vehicle
Procedure: The assay was carried out on compounds (1) and (3)-(6) and on edaravone (E) as comparative compound.
10 mice were used for each treatment group. For each compound 50 mg/kg were administered intraperitoneally (IP) for three consecutive days (day 0, 1 and 2); half the animals (5) also received IP 16.7 mg/kg of doxorubicin immediately after the first treatment (day 0). On the day after the last administration (day 3) the animals were killed by neck dislocation and the brains were removed, weighed and frozen in liquid nitrogen.
For the analyses of oxidative stress, 100 mg/ml of brain homogenate was prepared in Hebe buffer (pH 7.4 EDTA/HEPES^(**)) containing a mixture of enzyme inhibitors (Leupeptin, Pepstatin, Aprotinin, BHA). • ^(*) Hypotonic Extraction Buffer • ^(**) 4-2-hydroxyethyl-1-piperazinyl-ethanesulphonic acid
The evaluation parameters were: • BrW/BWi: ratio between final brain weight and initial body weight (day 0); • Prot. Hmg: total proteins in the homogenate (BCA method, i.e. bicinchoninic acid); • Prot. Ox: oxidized proteins in the Hmg by means of a colorimetric method using […] (DNPH); • GSH: reduced glutathione in the supernatant (sn) of the Hmg, obtained after precipitation with metaphosphoric acid (MPA), by means of a colorimetric method using […] (DTNB); • CAT: catalase in the Hmg by a colorimetric method using potassium dichromate; • SOD: superoxide dismutase by a colorimetric method using SOD Reagent (xanthine, EDTA, nitroblue tetrazole, Na2CO3, BSA, i.e. bovine serum albumin); • GST: glutathione S-transferase in the supernatant by a colorimetric method using chlorodinitrobenzene (CDNB) and GSH; and • GPx: glutathione peroxidase in the supernatant after addition of GSH and tert butyl hydroperoxide (t-BuOOH), heating and precipitation with MPA; followed by GSH method with DTNB.
All the parameters, with the exclusion of Brain/BWi and Prot. Hmg, were normalized for total Hmg proteins (Table 3). The D value standard deviations and the % incidence relative to V are given in italics.
The mean % effect, on all the parameters simultaneously, of the triple treatment in the healthy animals, as mean percentage variation relative to the vehicle (table 4). This value is useful as an approximate safety index of the oxidative state of the brain, i.e. the capacity of the compounds of the invention not to alter cerebral homeostasis in healthy animals.
The effect of the tested compounds on the "oxidized" animals was given as % inhibition relative to the percentage variation due to doxorubicin alone. The effect of the compounds on the oxidized animals can be expressed both as a function of the values of the vehicle (healthy, vehicle only) and as a function of the value of its own control (healthy, compound only): • Vehicle: percentage [(Compound+D)/V]x100/[(V+D)/V]x100 • Its own: percentage [(Compound+D)/Compound]x100/[(V+D)/V]x100

[3] = pH at the semi-neutralization point of titration (pKa); format: physicochemical; settings: titration with 0.1 N NaOH or HCl
Procedure: The following equipment was used during the implementation of all the examples: • for melting point determination a Buchi B-540 instrument was used; • for pH determination at the semi-neutralization point of titration (pKa) a Mettler Toledo DL-50 instrument was used with a 0.1 N xNaOH or HCl solution; • the ^1H-NMR spectra were recorded at 300 MHz and the ^13C-NMR spectra were recorded at 75 MHz using a Varian Unity 300 instrument; • spectrophotometric measurements were carried out using a Lambda Perkin Elmer 15 UV/Vis spectrophotometer for the DPPH assay and a Wallac Victor 1420 multilabel counter spectrophotometer.

[4] = Acute toxicity study, intraperitoneal single dose (OECD guideline no. 420); format: in vivo; settings: result in words, with reference to Example 13
Procedure: This study was carried out with the purpose of investigating the toxicity of a single dose of the listed compounds administered to ICR (CD-1) female mice. According to the current OECD guideline no.
The mice used were all female and were treated by intraperitoneal injection administration. The animals were observed individually and regularly for the first 4 hours and within 24 hours after administration, and then twice a day for the whole observation period. As soon as the animals were stabilized, observations at the weekend were undertaken once only during the day.
The evaluated parameters included the survival, body weight development, variations in skin and fur, changes in ocular, conjunctival and buccal mucous membranes, changes in activities of the respiratory, circulatory, autonomous and central nervous systems, changes in somatomotor activity and in behaviour.
Any appearance of tremors, convulsions, salivation, diarrhea, lethargy, drowsiness and coma were attentively and regularly monitored. At the end of the observation period, a post-mortem was carried out on all the animals.

Compound | bioavailability at the target site / crossing of the blood-brain barrier [1] | Brain/BWi its own [2] [%] | CAT/pr its own [2] [%] | GPX/pr its own [2] [%] | GSH/pr its own [2] [%] | GST/pr its own [2] [%] | Prot. Hmg its own [2] [%] | Prot. Ox/pr its own [2] [%] | SOD/pr its own [2] [%] | Brain/BWi vehicle [2] [%] | CAT/pr vehicle [2] [%] | GPX/pr vehicle [2] [%] | GSH/pr vehicle [2] [%] | GST/pr vehicle [2] [%] | Prot. Hmg vehicle [2] [%] | Prot. Ox/pr vehicle [2] [%] | SOD/pr vehicle [2] [%] | Brain/BWi [2] [%] | CAT/pr [2] [%] | GPX/pr [2] [%] | further results
O=C1C=C(NCCN2CCCCC2)CC(c2ccccc2)C1 (stereo not shown) [(3), 5-phenyl-3-(2-(piperidin-1-yl)ethylamino)cyclohex-2-enone] | particularly bioavailable, as well as able to cross the blood-brain barrier in effective amounts | -30.4 | -48.5 | 23.2 | 0.0 | 37.4 | -101.2 | -116.3 | 107.7 | -76.8 | 3.0 | -20.2 | -7.2 | -48.4 | -32.5 | -107.0 | 86.7 | 1.0 | -9.2 | 2.4 | GSH/pr [2]: 0.4%; GST/pr [2]: 4.1%; Prot. Hmg [2]: 2.3%; Prot. Ox/pr [2]: -7.8%; SOD/pr [2]: 1.1%; Mean % variation relative to the vehicle [2]: -1.3%; overall percentage inhibition [2]: greater than 40%; Acid dissociation constants: pKa1 [3]: 2.82; Acid dissociation constants: pKa2 [3]: 8.46
CC1(C)CC(=O)C=C(NN2CCCCC2)C1 [(6), 5,5-dimethyl-3-(piperidin-1-ylamino)cyclohex-2-enone] | particularly bioavailable, as well as able to cross the blood-brain barrier in effective amounts | -18.8 | -28.8 | -100.0 | -72.8 | -36.3 | -97.6 | 45.9 | -60.8 | 10.1 | 6.8 | -34.3 | -10.4 | -18.7 | -8.4 | 21.5 | -2.1 | -2.5 | -6.4 | -8.7 | GSH/pr [2]: -9.6%; GST/pr [2]: -2.5%; Prot. Hmg [2]: 8.4%; Prot. Ox/pr [2]: -5.6%; SOD/pr [2]: -10.8%; Mean % variation relative to the vehicle [2]: -5.4%; overall percentage inhibition [2]: greater than 40%; pKa ([3]; read-out: Acid dissociation constant: pKa): 2.62; toxicity evaluation in vivo (tolerability) [4]: well tolerated
CC1(C)CC(=O)C=C(NCCN2CCCCC2)C1 [(1), 5,5-dimethyl-3-(2-(piperidin-1-yl)ethylamino)cyclohex-2-enone] | particularly bioavailable, as well as able to cross the blood-brain barrier in effective amounts | -76.8 | -32.6 | -16.2 | -8.8 | 5.5 | -16.9 | -95.9 | -9.1 | -33.3 | 77.3 | 22.2 | -2.4 | 16.5 | 22.9 | -82.6 | 29.4 | -3.2 | -7.1 | -7.6 | GSH/pr [2]: -1.5%; GST/pr [2]: -2.3%; Prot. Hmg [2]: 5.3%; Prot. Ox/pr [2]: 1.4%; SOD/pr [2]: -5.9%; Mean % variation relative to the vehicle [2]: -4.3%; overall percentage inhibition [2]: greater than 40%; Acid dissociation constants: pKa1 [3]: 2.82; Acid dissociation constants: pKa2 [3]: 8.64; toxicity evaluation in vivo (tolerability) [4]: well tolerated
